Experiments:
hA1AR = hA1AR (Homo sapiens (Human), UniProt P30542); assay: Binding affinities for Adenosine receptors (hA1AR); details: CHO cells stably expressing recombinant hA1AR
hA3AR = hA3AR (Homo sapiens (Human), UniProt P0DMS8); assay: Binding affinities for Adenosine receptors (hA3AR); details: CHO cells stably expressing recombinant hA3AR
hA2AAR = hA2AAR (Homo sapiens (Human), UniProt P29274); assay: Binding affinities for Adenosine receptors (hA2AAR); details: HEK 293 cells stably expressing hA2AAR
hA2AAR, sequence (P29274 whole entry): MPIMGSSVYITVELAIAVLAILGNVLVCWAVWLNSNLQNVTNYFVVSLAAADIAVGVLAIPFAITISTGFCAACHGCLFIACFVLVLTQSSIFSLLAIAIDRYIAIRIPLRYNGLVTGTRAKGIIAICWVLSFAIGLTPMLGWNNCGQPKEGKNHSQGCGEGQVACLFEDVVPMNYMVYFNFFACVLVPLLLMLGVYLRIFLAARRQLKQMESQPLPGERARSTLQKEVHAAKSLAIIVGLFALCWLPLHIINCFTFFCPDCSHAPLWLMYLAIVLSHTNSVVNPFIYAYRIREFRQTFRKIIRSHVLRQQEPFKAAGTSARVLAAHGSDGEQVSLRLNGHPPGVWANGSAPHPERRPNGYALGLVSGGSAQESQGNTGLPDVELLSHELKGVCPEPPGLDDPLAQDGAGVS

[1] = Stability of prodrugs in mouse plasma after 2 hours of treatment; format: in vitro ADME; details: 37° C.

hA3AR, sequence (P0DMS8 whole entry): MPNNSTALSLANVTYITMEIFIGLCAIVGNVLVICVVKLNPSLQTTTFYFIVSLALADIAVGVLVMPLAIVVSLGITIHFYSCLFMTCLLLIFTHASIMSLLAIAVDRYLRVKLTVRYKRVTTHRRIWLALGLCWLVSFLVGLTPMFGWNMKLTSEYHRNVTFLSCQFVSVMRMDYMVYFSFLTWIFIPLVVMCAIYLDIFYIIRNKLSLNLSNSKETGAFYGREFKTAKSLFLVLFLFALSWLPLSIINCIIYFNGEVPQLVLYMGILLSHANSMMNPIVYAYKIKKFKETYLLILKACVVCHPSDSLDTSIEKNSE
hA1AR, sequence (P30542 whole entry): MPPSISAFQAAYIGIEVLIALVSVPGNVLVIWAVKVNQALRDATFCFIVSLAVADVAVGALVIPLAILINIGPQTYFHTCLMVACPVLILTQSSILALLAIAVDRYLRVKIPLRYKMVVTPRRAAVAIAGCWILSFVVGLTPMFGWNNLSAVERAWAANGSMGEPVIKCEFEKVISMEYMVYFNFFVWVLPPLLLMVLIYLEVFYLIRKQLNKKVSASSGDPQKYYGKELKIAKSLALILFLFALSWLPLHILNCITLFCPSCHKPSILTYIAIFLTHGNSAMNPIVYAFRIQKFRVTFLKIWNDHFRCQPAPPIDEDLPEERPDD

Ki (hA1AR)	Ki (hA3AR)	Ki (hA2AAR)	Parent prodrug remained after 2 hours [1]	Compound
> 10 µM	1 to 10 µM	1 to 10 µM	–	OC[C@H]1O[C@@H](n2cnc3c(NC(C4CC4)C4CC4)ncnc32)[C@@H](O)C1O (some centres unmarked) [Compound T14.4]
–	–	–	21%	CC(C)[C@H](N)C(=O)OC[C@@]12C[C@@H]1[C@@H](n1cnc3c(NC(C4CC4)C4CC4)nc(Cl)nc31)[C@H](O)[C@@H]2O [Compound T4.1, ((1R,2R,3S,4R,5S)-4-(2-chloro-6-((dicyclopropylmethyl)amino)-9H-purin-9-yl)-2,3-dihydroxybicyclo[3.1.0]hexan-1-yl)methyl L-valinate]
> 10 µM	> 10 µM	> 10 µM	–	C[C@@H]1CC(n2cnc3c(NC4C5(CC5)C45CC5)ncnc32)C(O)C1O (some centres unmarked) [Compound T13.5]
< 1 µM	> 10 µM	1 to 10 µM	–	C[C@@H]1CC(n2cnc3c(NC4C5(CC5)C45CC5)nc(Cl)nc32)C(O)C1O (some centres unmarked) [Compound T13.2]
1 to 10 µM	1 to 10 µM	1 to 10 µM	–	OC[C@H]1O[C@@H](n2cnc3c(NC(C4CCC4)C4CCC4)ncnc32)[C@@H](O)C1O (some centres unmarked) [Compound T14.6]
1 to 10 µM	> 10 µM	1 to 10 µM	–	OC[C@H]1O[C@@H](n2cnc3c(NC(C4CC4)C4CC4)nc(Cl)nc32)[C@@H](O)C1O (some centres unmarked) [Compound T14.1]
–	–	–	17%	CNC(=O)[C@@]12C[C@@H]1[C@@H](n1cnc3c(NCc4cccc(Cl)c4)nc(C#Cc4ccc(F)c(F)c4)nc31)[C@@H]1OC3(CCN(C)CC3)O[C@@H]12 [Compound T9.8, (3aR,3bS,4aS,5R,5aS)-5-(6-((3-chlorobenzyl)amino)-2-((3,4-difluorophenyl)ethynyl)-9H-purin-9-yl)-N,1′-dimethyltetrahydrospiro[cyclopropa[3,4]cyclopenta[1,2-d][1,3]dioxole-2,4′-piperidine]-3b(3aH)-carboxamide]
< 1 µM	1 to 10 µM	> 10 µM	–	C[C@@H]1CC(n2cnc3c(NC(C4CC4)C4CC4)nc(Cl)nc32)C(O)C1O (some centres unmarked) [Compound T13.1]
–	–	–	14%	CC(C)[C@H](N)C(=O)N(c1nc(Cl)nc2c1ncn2[C@H]1[C@H](O)[C@H](O)[C@@H]2C[C@@H]21)C(C1CC1)C1CC1 [Compound T3.1, (S)-2-amino-N-(2-chloro-9-((1S,2R,3S,4R,5R)-3,4-dihydroxybicyclo[3.1.0]hexan-2-yl)-9H-purin-6-yl)-N-(dicyclopropylmethyl)-3-methylbutanamide]
1 to 10 µM	> 10 µM	1 to 10 µM	–	C[C@@H]1CC(n2cnc3c(NC(C4CC4)C4CC4)ncnc32)C(O)C1O (some centres unmarked) [Compound T13.4]
1 to 10 µM	> 10 µM	1 to 10 µM	–	C[C@@H]1CC(n2cnc3c(NC(C4CCC4)C4CCC4)ncnc32)C(O)C1O (some centres unmarked) [Compound T13.6]
< 1 µM	> 10 µM	> 10 µM	–	C[C@@H]1CC(n2cnc3c(NC(C4CCC4)C4CCC4)nc(Cl)nc32)C(O)C1O (some centres unmarked) [Compound T13.3]
> 10 µM	< 1 µM	1 to 10 µM	–	OC[C@H]1O[C@@H](n2cnc3c(NC(C4CCC4)C4CCC4)nc(Cl)nc32)[C@@H](O)C1O (some centres unmarked) [Compound T14.3]
1 to 10 µM	> 10 µM	> 10 µM	–	OC[C@H]1O[C@@H](n2cnc3c(NC4C5(CC5)C45CC5)ncnc32)[C@@H](O)C1O (some centres unmarked) [Compound T14.5]
> 10 µM	> 10 µM	1 to 10 µM	–	OC[C@H]1O[C@@H](n2cnc3c(NC4C5(CC5)C45CC5)nc(Cl)nc32)[C@@H](O)C1O (some centres unmarked) [Compound T14.2]

Compound	Ki (hA1AR)	Ki (hA3AR)	Ki (hA2AAR)	Parent prodrug remained after 2 hours [1]
CC(C)[C@H](N)C(=O)OC1C(OC(=O)[C@@H](N)C(C)C)[C@@H]2C[C@@H]2C1n1cnc2c(NC(C3CC3)C3CC3)nc(Cl)nc21.Cl.Cl (stereo partly drawn) [Compound T1.1, (1R,5S)-4-(2-chloro-6-((dicyclopropylmethyl)amino)-9H-purin-9-yl)bicyclo[3.1.0]hexane-2,3-diyl (2S,2'S)-bis(2-amino-3-methylbutanoate), dihydrochloride salt]	–	–	–	11%
CNC(=O)[C@@]12C[C@@H]1[C@@H](n1cnc3c(NCc4cccc(Cl)c4)nc(C#Cc4ccc(F)c(F)c4)nc31)[C@H](OC(=O)[C@@H](N)C(C)C)[C@@H]2OC(=O)[C@@H](N)C(C)C [Compound T8.1, (1S,2R,3S,4R,5S)-4-(6-((3-chlorobenzyl)amino)-2-((3,4-difluorophenyl)ethynyl)-9H-purin-9-yl)-1-(methylcarbamoyl)bicyclo[3.1.0]hexane-2,3-diyl (2S,2'S)-bis(2-amino-3-methylbutanoate)]	–	–	–	9%
